According to ChEMBL document CHEMBL1124481, “2-Haloaporphines as potent dopamine agonists” (J Med Chem, 1989):

Tests used:
[1] = test system: D(2) dopamine receptor (Sus scrofa); test: Proportion of high affinity state of Dopamine receptor D2 measured by compound ability to displace [3H]spiperone from porcine anterior pituitary membranes
[2] = test system: D(2) dopamine receptor (Sus scrofa); test: Compound was evaluated for the ability to displace [3H]-spiperone at Dopamine receptor D2 in porcine anterior pituitary gland as low affinity state

Row | SMILES | D-2 [1] | D-2 [2]
1 | CN1CCc2cc(Br)cc3c2[C@H]1Cc1ccc(O)c(O)c1-3 | 62% | 49%
2 | CN1CCc2cc(N)cc3c2[C@H]1Cc1ccc(O)c(O)c1-3 | 62% | 38%
